According to patent US9023865B2, “Compounds that are ERK inhibitors” (Merck Sharp & Dohme Corp., priority 2011, dated 2015):
Structures can show the parent of a compound that is named as a salt. Where two headings read alike, the source gives them in different places.

Experiments:
[1] = molecular target: Active Mouse ERK2 (mERK2) (Mus musculus (Mouse), UniProt P63085); experiment: Active Mouse ERK2 (mERK2) Activity Assay (IMAP-FP); type: biochemical
Method: Active Mouse ERK2 (mERK2) Activity Assay:
Activated ERK2 activity was determined in an IMAP-FP assay (Molecular Devices). […] Phosphorylation reactions were allowed to proceed for 45 minutes and were immediately quenched by the addition of 60 μL IMAP detection beads (1:1000 dilutions) in IMAP binding buffer (Molecular Devices) with 24 mM NaCl. Plates were read on EnVision reader after 60 minutes binding equilibration using Fluorescence Polarization protocol (Perkin Elmer).

[2] = molecular target: Active Human ERK2 (hERK2) (Homo sapiens (Human), UniProt P28482); experiment: Active Human ERK2 (hERK2) Activity Assay (IMAP-FP); type: biochemical; conditions: read-out: ERK 2 Human average IC50
Chain of Active Human ERK2 (hERK2) (P28482 whole entry): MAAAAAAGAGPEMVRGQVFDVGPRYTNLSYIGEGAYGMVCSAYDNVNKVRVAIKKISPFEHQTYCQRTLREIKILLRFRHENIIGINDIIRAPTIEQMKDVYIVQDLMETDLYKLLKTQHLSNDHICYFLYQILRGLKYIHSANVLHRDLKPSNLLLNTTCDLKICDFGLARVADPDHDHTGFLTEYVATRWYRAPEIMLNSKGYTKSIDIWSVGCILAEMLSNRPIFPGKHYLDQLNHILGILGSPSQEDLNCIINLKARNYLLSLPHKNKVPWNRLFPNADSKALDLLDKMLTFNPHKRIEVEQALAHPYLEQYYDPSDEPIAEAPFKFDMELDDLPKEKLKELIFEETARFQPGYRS
Summary of the method: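 Reaction contains 0.5 nM activated hERK2, 900 nM unlabeled plus 80 nM labeled peptide and 30 μM ATP, run 60 min. Quenched with IMAP binding beads in buffer with 24 mM NaCl; fluorescence polarization read after 60 min binding equilibration.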

[3] = phosphorylated active mERK2, 30 uM ATP, read-out: ERK 2 MAPK1 Mouse IC50
[4] = phosphorylated active hERK2, 30 μM ATP, average
[5] = read-out: AERK2 IC50 (Active mouse ERK2 Activity Assay)

Chain of Active Mouse ERK2 (mERK2) (P63085 whole entry): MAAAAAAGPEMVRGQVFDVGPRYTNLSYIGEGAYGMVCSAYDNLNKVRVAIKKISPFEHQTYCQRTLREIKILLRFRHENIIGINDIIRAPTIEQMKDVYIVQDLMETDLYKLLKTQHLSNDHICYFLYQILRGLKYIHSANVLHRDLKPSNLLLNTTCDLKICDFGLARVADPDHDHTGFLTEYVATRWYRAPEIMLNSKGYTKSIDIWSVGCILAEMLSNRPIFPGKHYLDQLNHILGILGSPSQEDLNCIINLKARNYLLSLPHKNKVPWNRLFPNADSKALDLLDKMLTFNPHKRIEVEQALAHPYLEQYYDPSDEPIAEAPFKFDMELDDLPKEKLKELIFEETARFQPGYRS

Row | IC50 [2, 4] [nM] | Compound | other results
1 | 0.204 | Cc1cc(-c2n[nH]c3cc(NC(=O)N[C@H](C)c4ccccc4)ncc23)ccn1 [Example 6, 1-[3-(2-methylpyridin-4-yl)-1H-pyrazolo[4,3-c]pyridin-6-yl]-3-[(1R)-1-phenylethyl]urea] | IC50 [1, 3]: 0.152 nM; IC50 [1, 5]: 0.1 to 1.2 nM
2 | 66.9 | Cc1cc(-c2n[nH]c3cc(NC(=O)NC4CCCC(Oc5cccc(F)c5)C4)ncc23)ccn1 (centres unmarked) [Example 658] | 
3 | 2.66 | C[C@@H](NC(=O)Nc1cc2[nH]nc(C3CC3C(=O)O)c2cn1)c1ccccc1 (some centres unmarked) [Example 660] | 
4 | 0.928 | COc1cc(-c2n[nH]c3cc(NC(=O)N[C@H](C)c4ccccc4)ncc23)ccn1 [Example 661] | 
5 | 0.929 | COc1cccc(F)c1CN1CCC[C@@H](NC(=O)Nc2cc3[nH]nc(-c4ccc5nn(C)cc5c4)c3cn2)C1 [Example 662] | 
6 | 9.13 | C[C@@H](NC(=O)Nc1cc2[nH]nc(C3=CNCN=C3)c2cn1)c1ccc(F)cc1 [Example 663] | 
7 | 2.49 | C[C@@H](NC(=O)Nc1cc2[nH]nc(-c3cncc(F)c3)c2cn1)c1ccc(F)cc1 [Example 664] | 
8 | 193 | C[C@@H](NC(=O)Nc1cc2[nH]nc(C(C)(F)F)c2cn1)c1ccc(F)cc1 [Example 665] | 
9 | 259 | CC(F)(F)c1n[nH]c2cc(NC(=O)NCc3ccccc3)ncc12 [Example 667] | 
10 | 13.6 | C[C@@H](NC(=O)Nc1cc2[nH]nc(C(F)F)c2cn1)c1ccccc1 [Example 670] | 
11 | 2.33 | C[C@@H](NC(=O)Nc1cc2[nH]nc(-c3cncnc3)c2cn1)c1ccc(F)cc1 [Example 671] | 
12 | 1.55 | C[C@@H](NC(=O)Nc1cc2[nH]nc(-c3cccc(C#N)c3)c2cn1)c1ccccc1 [Example 672] | 
13 | 3.67 | COc1ccc(-c2n[nH]c3cc(NC(=O)NCc4ccc(F)cc4)ncc23)cc1 [Example 677] | 
14 | 765 | C[C@@H](NC(=O)Nc1cc2[nH]nc(C(F)F)c2cn1)c1ccccn1 [Example 678] | 
15 | 7.7 | Cc1nnc(-c2n[nH]c3cc(NC(=O)N[C@H](C)c4ccccc4)ncc23)o1 [Example 681] | 
16 | 32.4 | Cc1cc(-c2n[nH]c3cc(NC(=O)N[C@H](C)c4ccccc4)ncc23)no1 [Example 682] | 
17 | 4.36 | COC[C@@H](NC(=O)Nc1cc2[nH]nc(-c3cc(C)on3)c2cn1)c1ccccc1 [Example 683] | 
18 | 23.8 | COC[C@@H](NC(=O)Nc1cc2[nH]nc(C3=NOC(C)C3)c2cn1)c1ccccc1 (some centres unmarked) [Example 686] | 
19 | 56 | CC1CC(c2n[nH]c3cc(NC(=O)N[C@H](C)c4ccccc4)ncc23)=NO1 (some centres unmarked) [Example 687] | 
20 | 5.39 | COC[C@@H](NC(=O)Nc1cc2[nH]nc(-c3cc(C)on3)c2cn1)c1ccc(F)cc1 [Example 688] | 
21 | 5.15 | Cc1cc(-c2n[nH]c3cc(NC(=O)NC4CCCOc5ccccc54)ncc23)no1 (centres unmarked) [Example 689] | 
22 | 12 | CCOC[C@@H](NC(=O)Nc1cc2[nH]nc(C(F)F)c2cn1)c1ccccc1 [Example 692] | 
23 | 21.4 | O=C(Nc1cc2[nH]nc(C(F)F)c2cn1)N[C@H](COCC1CC1)c1ccccc1 [Example 693] | 
24 | 6.03 | COCCOC[C@@H](NC(=O)Nc1cc2[nH]nc(C(F)F)c2cn1)c1ccccc1 [Example 694] | 
25 | 175 | O=C(Nc1cc2[nH]nc(C(F)F)c2cn1)NC1Cc2ccccc2C1O (centres unmarked) [Example 696] | 

Second part, the compound before the results:

Row | Compound | IC50 [2, 4] [nM] | other results
26 | Cc1cc(-c2n[nH]c3cc(NC(=O)NC4CCCNC4)ncc23)ccn1 (centres unmarked) [Example 1, 3-({[3-(2-methylpyridin-4-yl)-1H-pyrazolo[4,3-c]pyridin-6-yl]carbamoyl}amino)piperidinium trifluoroacetate] |  | IC50 [1, 3]: 3.13 nM
27 | COc1cccc(F)c1CN1CCC[C@@H](NC(=O)Nc2cc3[nH]nc(-c4ccnc(C)c4)c3cn2)C1 [Example 2, 1-[(3R)-1-(2-fluoro-6-methoxybenzyl)-piperidin-3-yl]-3-[3-(2-methylpyridin-4-yl)-1H-pyrazolo[4,3-c]pyridin-6-yl]urea] | 0.286 | IC50 [1, 3]: 0.152 nM; IC50 [1, 5]: 0.1 to 1.2 nM
28 | COc1cccc(F)c1CN1CCC[C@H](NC(=O)Nc2cc3[nH]nc(-c4ccnc(C)c4)c3cn2)C1 [Example 3, 1-[(3S)-1-(2-fluoro-6-methoxybenzyl)-piperidin-3-yl]-3-[3-(2-methylpyridin-4-yl)-1H-pyrazolo[4,3-c]pyridin-6-yl]urea] |  | IC50 [1, 3]: 36.6 nM
29 | COc1cccc(F)c1CN1CCCC(NC(=O)Nc2cc3[nH]nc(-c4ccnc(C)c4)c3cn2)C1 (centres unmarked) [Example 4, 1-[1-(2-fluoro-6-methoxybenzyl)-piperidin-3-yl]-3-[3-(2-methylpyridin-4-yl)-1H-pyrazolo[4,3-c]pyridin-6-yl]urea] |  | IC50 [1, 3]: 1.12 nM; IC50 [1, 5]: 0.1 to 1.2 nM
30 | Cc1cc(-c2n[nH]c3cc(NC(=O)NCCc4ccccc4)ncc23)ccn1 [Example 5, 1-[3-(2-methylpyridin-4-yl)-1H-pyrazolo[4,3-c]pyridin-6-yl]-3-(2-phenylethyl)urea] |  | IC50 [1, 3]: 0.502 nM; IC50 [1, 5]: 0.1 to 1.2 nM
31 | Cc1cc(-c2n[nH]c3cc(NC(=O)N[C@@H](C)c4ccccc4)ncc23)ccn1 [Example 7, 1-[3-(2-methylpyridin-4-yl)-1H-pyrazolo[4,3-c]pyridin-6-yl]-3-[(1S)-1-phenylethyl]urea] |  | IC50 [1, 3]: 38.3 nM
32 | Cc1cc(-c2n[nH]c3cc(NC(=O)NCc4ccc(Cl)c(Cl)c4)ncc23)ccn1 [Example 8, 1-(3,4-dichlorobenzyl)-3-[3-(2-methylpyridin-4-yl)-1H-pyrazolo[4,3-c]pyridin-6-yl]urea] |  | IC50 [1, 3]: 0.516 nM; IC50 [1, 5]: 0.1 to 1.2 nM
33 | Cc1cc(-c2n[nH]c3cc(NC(=O)NCc4ccccc4)ncc23)ccn1 [Example 9] |  | IC50 [2]: 0.851 nM; IC50 [1, 3]: 0.222 nM; IC50 [1, 5]: 0.1 to 1.2 nM
34 | Cc1cc(-c2n[nH]c3cc(NC(=O)NC(CO)c4ccccc4)ncc23)ccn1 (centres unmarked) [Example 10, 1-(2-hydroxy-1-phenylethyl)-3-[3-(2-methylpyridin-4-yl)-1H-pyrazolo[4,3-c]pyridin-6-yl]urea] |  | IC50 [1, 3]: 0.215 nM; IC50 [1, 5]: 0.1 to 1.2 nM
35 | Cc1cc(-c2n[nH]c3cc(NC(=O)NCc4nnc(C)o4)ncc23)ccn1 [Example 13] |  | IC50 [1, 3]: 10.2 nM
36 | Cc1cc(-c2n[nH]c3cc(NC(=O)NCc4cccnc4)ncc23)ccn1 [Example 14, 1-[3-(2-methylpyridin-4-yl)-1H-pyrazolo[4,3-c]pyridin-6-yl]-3-(pyridin-3-ylmethyl)urea] |  | IC50 [1, 3]: 1.16 nM; IC50 [1, 5]: 0.1 to 1.2 nM
37 | Cc1cc(-c2n[nH]c3cc(NC(=O)N[C@@H](c4ccccc4)C(F)(F)F)ncc23)ccn1 [Example 16, 1-[3-(2-methylpyridin-4-yl)-1H-pyrazolo[4,3-c]pyridin-6-yl]-3-[(1S)-2,2,2-trifluoro-1-phenylethyl]urea] |  | IC50 [1, 3]: 3.78 nM
38 | Cc1cc(-c2n[nH]c3cc(NC(=O)N[C@@H](CO)c4ccccc4)ncc23)ccn1 [Example 17, 1-[(1R)-2-hydroxy-1-phenylethyl]-3-[3-(2-methylpyridin-4-yl)-1H-pyrazolo[4,3-c]pyridin-6-yl]urea] |  | IC50 [1, 3]: 108 nM
39 | Cc1cc(-c2n[nH]c3cc(NC(=O)N[C@H](c4ccccc4)C(F)(F)F)ncc23)ccn1 [Example 18, 1-[3-(2-methylpyridin-4-yl)-1H-pyrazolo[4,3-c]pyridin-6-yl]-3-[(1R)-2,2,2-trifluoro-1-phenylethyl]urea] |  | IC50 [1, 3]: 9.46 nM
40 | C[C@@H](NC(=O)Nc1cc2[nH]nc(C3=CCOCC3)c2cn1)c1ccccc1 [Example 20, 1-[3-(3,6-dihydro-2H-pyran-4-yl)-1H-pyrazolo[4,3-c]pyridin-6-yl]-3-[(1R)-1-phenylethyl]urea] |  | IC50 [1, 3]: 0.537 nM; IC50 [1, 5]: 0.1 to 1.2 nM
41 | Cc1cc(-c2n[nH]c3cc(NC(=O)NC4CCCC(Oc5cccc(F)c5)C4)ncc23)ccn1 (centres unmarked) [Example 657] | 4.67 | 

Row | Compound | IC50 [2, 4] [nM] | other results
42 | Cc1cc(-c2n[nH]c3cc(NC(=O)NC4CCCC(Oc5cccc(F)c5)C4)ncc23)ccn1 (centres unmarked) [Example 659] | 51.9 | 
43 | CC(F)(F)c1n[nH]c2cc(NC(=O)NCc3ccc(F)cc3)ncc12 [Example 668] | 647 | 
44 | C[C@@H](NC(=O)Nc1cc2[nH]nc(C(F)F)c2cn1)c1ccc(F)cc1 [Example 669] | 21.6 | 
45 | N#Cc1cccc(-c2n[nH]c3cc(NC(=O)NCc4ccc(F)cc4)ncc23)c1 [Example 673] | 5.41 | 
46 | C[C@@H](NC(=O)Nc1cc2[nH]nc(-c3ccc(OC(F)(F)F)cc3)c2cn1)c1ccccc1 [Example 674] | 13.2 | 
47 | O=C(NCc1ccc(F)cc1)Nc1cc2[nH]nc(-c3ccc(OC(F)(F)F)cc3)c2cn1 [Example 675] | 89.2 | 
48 | COc1ccc(-c2n[nH]c3cc(NC(=O)N[C@H](C)c4ccccc4)ncc23)cc1 [Example 676] | 0.94 | 
49 | CCCC(=O)c1n[nH]c2cc(NC(=O)N[C@H](COC)c3ccccc3)ncc12 [Example 684] | 26.8 | 
50 | Cc1cc(-c2n[nH]c3cc(NC(=O)NC4CCCOc5ccccc54)ncc23)no1 (centres unmarked) [Example 690] | 240 | 
51 | Cc1cccc(CNC(=O)Nc2cc3[nH]nc(C(F)F)c3cn2)n1 [Example 695] | 155 | 
52 | COC[C@@H](NC(=O)Nc1cc2[nH]nc(-c3ccc4nnn(C)c4c3)c2cn1)c1ccccc1 [Example 697] | 0.221 | 
53 | CCOC[C@@H](NC(=O)Nc1cc2[nH]nc(-c3cc(C)on3)c2cn1)c1ccccc1 [Example 698] | 6.78 | 
54 | Cc1cc(-c2n[nH]c3cc(NC(=O)N[C@H](COCC4CC4)c4ccccc4)ncc23)no1 [Example 699] | 23.5 | 
55 | COCCOC[C@@H](NC(=O)Nc1cc2[nH]nc(-c3cc(C)on3)c2cn1)c1ccccc1 [Example 700] | 11.9 | 
56 | Cc1cc(-c2n[nH]c3cc(NC(=O)N[C@H](COCC(F)F)c4ccccc4)ncc23)no1 [Example 701] | 4.57 | 
